Test results published in patent publication US10239878B2, “Macrocyclic ligands with pendant chelating moieties and complexes thereof” (LUMIPHORE, INC., priority 2016, dated 2019).

Test: Europium titration experiments for determining extinction coefficients
Type: physicochemical
Method: In order to determine accurate extinction coefficients for 16 and 16⋅Eu, titration experiments using europium chloride as the titrant were performed. Europium chloride hexahydrate (13.22 mg, 0.03608 mmol) was dissolved into 5 mM citrate buffer (pH=4) using a 100 mL volumetric flask to give a 0.3608 mM europium chloride solution, which was then titrated into a 0.5 mL solution of 16 in TBS buffer (Tris-buffered saline, 50 mM Tris, 150 mM NaCl, pH=7.6) using 5 μL aliquots. The UV-vis spectra were adjusted for the increase in solvent volume due to each injection. The results of the UV-vis titration are plotted in FIG. 3.
The volume of europium chloride corresponds to 16.70 nmol of europium, meaning the starting concentration of ligand 16 was 33.40 μM. […] These absorbance and concentration values yield extinction coefficients of 13,600 M^−1 cm^−1 and 14,300 M^−1 cm^−1 for the ligand 16 and the complex 16⋅Eu respectively.
In order to determine accurate extinction coefficients for 43 and 43⋅Eu, titration experiments using europium chloride as the titrant were performed. Europium chloride hexahydrate (47.58 mg, 0.1299 mmol) was dissolved into 50 mM citrate buffer (pH=4) using a 10 mL volumetric flask to give a 12.99 mM europium chloride solution, which was then transferred to a 100 mL volumetric flask and diluted 1:10 with water. The resulting 1.299 mM europium chloride solution (in 5 mM citrate buffer) was then titrated into a 1 mL solution of 43 in TBS buffer using 5 μL aliquots. The UV-vis spectra were adjusted for the increase in solvent volume due to each injection. The results of the UV-vis titration are plotted in FIG. 4.
The volume of europium chloride corresponds to 47.46 nmol of europium, meaning the starting concentration of ligand 43 was 47.46 μM. […] These absorbance and concentration values yield extinction coefficients of 13,000 M^−1 cm^−1 and 12,800 M^−1 cm^−1 for the ligand and complex respectively.
Titration of ligand 43 was also performed by luminescence (FIG. 5), monitoring the europium signal at 612 nm upon photoexcitation of the solution at 340 nm. The ligand solution used for the UV-vis titration of 43 mentioned above was first diluted 1:10 in TBS buffer. Similarly, the 1.299 mM stock europium solution was separately diluted 1:10 with water. […] The 32.99 μL equivalence point gives extinction coefficients of 14,400 M^−1 cm^−1 at 383 nm and 14,200 M^−1 cm^−1 at 357 nm for 43 and 43⋅Eu respectively. Averaging the values from both UV-vis and luminescence titration experiments of 43 yields extinction coefficients of 13,700 M^−1 cm^−1 at 383 nm and 13,500 M^−1 cm^−1 at 357 nm for 43 and 43⋅Eu respectively.

NCCOCCNC(=O)C1CCCN(C(=O)c2cccc(=O)n2[O-])CCCNC(=O)c2ccc(n([O-])c2=O)C(=O)NC2COCC2NC(=O)c2ccc(c(=O)n2[O-])C(=O)NCCCN1C(=O)c1cccc(=O)n1[O-].[Eu+3] (mixture of isomers) [43⋅Eu]
extinction coefficient (UV-vis titration with europium chloride, TBS buffer pH 7.6, at lambda max): 12,800 M^−1 cm^−1
lambda max (UV-vis titration, TBS buffer): 357 nm
extinction coefficient, average of UV-vis and luminescence titration (at 383 nm (ligand) / 357 nm (complex)): 13,500 M^−1 cm^−1
ε at λmax (by europium titration, TBS buffer pH 7.6): 13,500 M^−1cm^−1
extinction coefficient (luminescence titration (612 nm signal, 340 nm photoexcitation), at 383 nm (ligand) / 357 nm (complex)): 14,200 M^−1 cm^−1
